# Measured values as given in US4404218A, “Antibiotic SF-2103A substance and process for production thereof” (Meiji Seika Kaisha Ltd., priority 1980, dated 1983).
# Structures can show the parent of a compound that is named as a salt.
# Key:
# [1] = system: Citrobacter freundii GN 346; experiment: synergistic effects with β-lactam antibiotics, paper disk inhibition zone
# [2] = system: Proteus rettgeri GN 624; experiment: as above
# [3] = system: Proteus vulgaris M-8243; experiment: as above
# [4] = system: Shigella dysenteriae Shigae; experiment: microbe, parasite or virus in culture; format: cell-based; conditions: read-out: Minimum Inhibitory Concentration
# [5] = system: Proteus vulgaris GN 76/C-1; experiment: antibacterial activity, agar dilution method; format: cell-based; conditions: GN76, Heart Infusion Agar, read-out: Minimum Inhibitory Concentration
# [6] = system: Pseudomonas aeruginosa E-2; experiment: antibacterial activity, agar dilution method; format: cell-based; conditions: E2, Heart Infusion Agar, read-out: Minimum Inhibitory Concentration
# [7] = solubility; format: physicochemical
# [8] = toxicity (LD50); conditions: in vivo, mice or rat
# Procedure: […]. LD50 values by oral administration, intramuscular injection and intravenous injection were all higher than 2,000 mg/kg.
# [9] = system: Staphylococcus aureus 209P; experiment: antibacterial activity, agar dilution method; format: cell-based; conditions: Heart Infusion Agar, read-out: Minimum Inhibitory Concentration
# [10] = system: Serratia marcescens No. 1; experiment: antibacterial activity, agar dilution method; format: cell-based; conditions: Heart Infusion Agar, read-out: Minimum Inhibitory Concentration
# [11] = system: Bacillus subtilis ATCC 6633; experiment: antibacterial activity, agar dilution method; format: cell-based; conditions: ATCC6633, Heart Infusion Agar, read-out: Minimum Inhibitory Concentration
# [12] = system: Klebsiella pneumoniae PCI 602; experiment: antibacterial activity, agar dilution method; format: cell-based; conditions: PCI602, Heart Infusion Agar, read-out: Minimum Inhibitory Concentration
# [13] = system: Citrobacter freundii GN 346; experiment: antibacterial activity, agar dilution method; format: cell-based; conditions: GN346, Heart Infusion Agar, read-out: Minimum Inhibitory Concentration
# [14] = system: Escherichia coli NIHJ JC-2; experiment: antibacterial activity, agar dilution method; format: cell-based; conditions: NIHJJC2, Heart Infusion Agar, read-out: Minimum Inhibitory Concentration
# [15] = system: Escherichia coli No. 29; experiment: antibacterial activity, agar dilution method; format: cell-based; conditions: Heart Infusion Agar, read-out: Minimum Inhibitory Concentration
# From the text: In this determination, Heart Infusion Agar (produced by Eiken Chemical Co., Ltd.) was used as the medium.
# [16] = system: Proteus morganii Kono; experiment: antibacterial activity, agar dilution method; format: cell-based; conditions: Morganella morganii, Heart Infusion Agar, read-out: Minimum Inhibitory Concentration
# [17] = system: Staphylococcus aureus Smith; experiment: antibacterial activity, agar dilution method; format: cell-based; conditions: Heart Infusion Agar, read-out: Minimum Inhibitory Concentration
# [18] = system: Proteus mirabilis GN 310; experiment: antibacterial activity, agar dilution method; format: cell-based; conditions: GN310, Heart Infusion Agar, read-out: Minimum Inhibitory Concentration
# [19] = target: T1, β-lactamase of Citrobacter freundii GN 346 (Citrobacter freundii, UniProt P05193); experiment: β-lactamase inhibitory activity, modified Sargent's method; format: biochemical; conditions: read-out: 50% Inhibitory Concentration (I50) (converted)
# T1 construct: cefalotin substrate
# [20] = stability; format: physicochemical
# From the text: Furthermore, it is difficult to isolate the SF-2103A substance in a free acid form because it is, as described above, very unstable in an acidic state. The SF-2103A substance is therefore obtained as a salt thereof in a pale yellow or white amorphous powder form by freeze-drying a neutral aqueous solution thereof. The purity of the SF-2103A substance obtained varies depending on the potency of the culture broth.
# [21] = system: Escherichia coli GN206; experiment: mouse protection test, Experiment I; conditions: observed 7 days, groups of five
# [22] = system: Penicillinase; experiment: β-lactamase inhibitory activity, modified Sargent's method; format: biochemical; conditions: at 10 ^.parallel.g/ml; substrate Penicilline G Potassium Salt
# From the text: The Sargent's method was partly modified as follows
# Reagent A: Enzyme solution properly diluted with 0.1 M phosphate buffer (pH 7.0) as to show 0.6 optical density of consumption of iodine at 490 nm when measured under the undermentioned conditions.
# Reagent B: 1.3% Penicillin G potassium salt aqueous solution for penicillinase assay. 1.3% Cefalotin sodium salt aqueous solution for cephalosporinase assay (β-lactamase of Proteus vulgaris M-8243 or Citrobacter freundii GN 346).
# Reagent C: 0.1 M phosphate buffer (pH 7.0)
# Reagent D: Iodine acetate buffer solution which is prepared by adding 5 ml of stock iodine solution* to 95 ml of pH 4.0 acetate buffer (80 g of anhydrous sodium acetate adjusted to pH 4.0 with acetic acid and made up to 2 liters with distilled water).
# A reaction mixture consisted of 0.5 ml of Reagent B and 2 ml of Reagent C is pre-incubated for 5 min at 30° C., and 0.5 ml of Reagent A is added to it and kept for 30 min at 30° C. At the end of reaction, 5 ml of Reagent D is added with rapid mixing and kept for 10 min at 30° C., then the optical density at 490 nm is measured.
# As the blank test, an incubation mixture containing 0.5 ml of Reagent B and 2 ml of Reagent C is kept at 30° C. for 30 min, after that 5 ml of Reagent D and 0.5 ml of Reagent A are added to it. Then the optical density is measured in the same way. […]
# [23] = β-lactam alone on 8 mm disk (Ampicillin 10 μg, Carbenicillin 2 μg, Cefalotin 2 μg, Cefaloridine 5 μg), 37° C., 16 hours
# [24] = SF-2103A alone, 1 μg per disk, listed as SF-2103A
# T1 sequence (P05193 21-381): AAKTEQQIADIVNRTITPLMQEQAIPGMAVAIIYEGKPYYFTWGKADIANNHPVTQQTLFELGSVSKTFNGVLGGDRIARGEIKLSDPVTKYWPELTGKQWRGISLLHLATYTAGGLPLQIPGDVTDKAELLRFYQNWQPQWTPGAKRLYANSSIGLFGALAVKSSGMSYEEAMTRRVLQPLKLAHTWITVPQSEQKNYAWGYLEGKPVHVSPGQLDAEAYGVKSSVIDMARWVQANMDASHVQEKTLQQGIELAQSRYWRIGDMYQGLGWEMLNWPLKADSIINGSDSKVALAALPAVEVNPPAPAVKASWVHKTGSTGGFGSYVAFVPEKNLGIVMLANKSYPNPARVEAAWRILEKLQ
compound,measurement,setting,value
CC1(C)S[C@@H]2[C@H](NC(=O)[C@H](N)c3ccccc3)C(=O)N2[C@H]1C(=O)O [Ampicillin],Diameter of Inhibition Zone,[1]; [23],0 mm
same,Diameter of Inhibition Zone,[2]; [23],0 mm
same,Diameter of Inhibition Zone,[3]; [23],0 mm
CC1(C)S[C@@H]2[C@H](NC(=O)C(C(=O)O)c3ccccc3)C(=O)N2[C@H]1C(=O)O (stereo partly drawn) [Carbenicillin],Diameter of Inhibition Zone,[1]; [23],0 mm
same,Diameter of Inhibition Zone,[2]; [23],0 mm
same,Diameter of Inhibition Zone,[3]; [23],0 mm
O=C(Cc1cccs1)N[C@@H]1C(=O)N2C(C(=O)[O-])=C(C[n+]3ccccc3)CS[C@H]12 [Cefaloridine],Diameter of Inhibition Zone,[1]; [23],0 mm
same,Diameter of Inhibition Zone,[2]; [23],0 mm
same,Diameter of Inhibition Zone,[3]; [23],0 mm
CC(=O)OCC1=C(C(=O)O)N2C(=O)[C@@H](NC(=O)Cc3cccs3)[C@H]2SC1 [Cefalotin],Diameter of Inhibition Zone,[1]; [23],0 mm
same,Diameter of Inhibition Zone,[2]; [23],0 mm
same,Diameter of Inhibition Zone,[3]; [23],0 mm
CC(OS(=O)(=O)O)C1C(=O)N2C(C(=O)O)=C(S(=O)(=O)O)CC12 (stereo not drawn) [SF-2103A substance sodium salt],MIC,[4],3.13 µg/mL
same,MIC,[5],25 µg/mL
same,MIC,[6],> 100 µg/mL
same,Solubility,[7]; in benzene,insoluble
same,Solubility,[7]; in chloroform,insoluble
same,Solubility,[7]; in ethyl acetate,insoluble
same,Solubility,[7]; in methanol,soluble
same,Solubility,[7]; in water,Freely soluble
same,LD50,"[8]; im, intramuscular injection",> 2000 mg/kg
same,LD50,[8]; intravenous injection,> 2000 mg/kg
same,LD50,[8]; oral administration,> 2000 mg/kg
same,MIC,[9],25 µg/mL
same,MIC,[10],50 µg/mL
same,MIC,[11],50 µg/mL
same,MIC,[12],50 µg/mL
same,MIC,[13],6.25 µg/mL
same,MIC,[14],12.5 µg/mL
same,MIC,[15],3.13 µg/mL
same,MIC,[16],25 µg/mL
same,MIC,[17],25 µg/mL
same,MIC,[18],50 µg/mL
CC(OS(=O)(=O)O)C1C(=O)N2C(C(=O)O)=C(S(=O)(=O)O)CC12 (stereo not drawn) [SF-2103A substance],IC50,[19],504 nM
same,Diameter of Inhibition Zone,"[1]; SF-2103A alone, 1 μg per disk",does not show the inhibition zone
same,Diameter of Inhibition Zone,[1]; [24],0 mm
same,stability,[20]; acidic state (free acid form),very unstable
same,stability,"[20]; temperatures higher than room temperature, acidic or alkaline state",extremely unstable
same,Diameter of Inhibition Zone,"[2]; SF-2103A alone, 1 μg per disk",does not show the inhibition zone
same,Diameter of Inhibition Zone,[2]; [24],0 mm
same,survival of infected mice,[21]; 1 mg/mouse subcutaneously twice at one and two hours after intraperitoneal infection,four of the five mice survived
same,survival of infected mice,[21]; 2 mg/mouse subcutaneously once at one hour after intraperitoneal infection,two of the five mice survived
same,Diameter of Inhibition Zone,"[3]; SF-2103A alone, 1 μg per disk",does not show the inhibition zone
same,Diameter of Inhibition Zone,[3]; [24],0 mm
same,Inhibitory Ratio,[22],34.4%
